Test results taken from PMC9897768, “Discovery of new 6-ureido/amidocoumarins as highly potent and selective inhibitors for the tumour-relevant carbonic anhydrases IX and XII” (Journal of Enzyme Inhibition and Medicinal Chemistry, 2023).

Tests used:
[1] = molecular target: hCA I (Homo sapiens, UniProt P00915); experiment: stopped-flow CO2 hydrase assay, hCA I; assay type: biochemical; conditions: incubation time 6 h, mean of three experiments
Method: (§1) The target coumarins 5a–p and 7a–c were examined for their CA inhibitory actions towards the ubiquitous CA I and II (cytosolic) as well as the tumour-associated CA IX and XII isozymes by the use of a stopped-flow CO2 hydrase assay, using acetazolamide (AZA) as a reference compound.
(§2) The experimental procedures utilised for CA inhibitory assay of the target compounds were carried out as described earlier, and presented in the Supplementary Materials.

[2] = molecular target: hCA II (Homo sapiens, UniProt P00918); experiment: stopped-flow CO2 hydrase assay, hCA II; assay type: biochemical; conditions: incubation time 6 h, mean of three experiments
Method: as §1, §2

[3] = molecular target: hCA IX (Homo sapiens, UniProt Q16790); experiment: stopped-flow CO2 hydrase assay, hCA IX; assay type: biochemical; conditions: incubation time 6 h, mean of three experiments
Method: as §1, §2

[4] = molecular target: hCA XII (Homo sapiens, UniProt O43570); experiment: stopped-flow CO2 hydrase assay, hCA XII; assay type: biochemical; conditions: incubation time 6 h, mean of three experiments
Method: as §1, §2

[5] = tested on: HCT-116 cells; experiment: MTT antiproliferative assay, HCT-116; assay type: cell-based, human; conditions: mean ± SEM of three experiments; for inhibition at 10 µM / inhibition at 100 µM: Homo sapiens; for inhibition at 10 µM: HCT-116, HCT116, 10 µM, read-out: % Growth inhibition HCT116 10 µM; for inhibition at 100 µM: HCT-116, HCT116, 100 µM, read-out: % Growth inhibition HCT116 100 µM
Method: (§3) Encouraged by the favourable selectivity profile of ureidocoumarins 5a–p and amidocoumarins 7a–c towards hCA IX and hCA XII, they were further examined for their prospective antiproliferative activity against human colorectal (HCT-116) and breast (MCF-7) cancer cell lines, adopting the MTT assay.
(§4) The evaluation of anticancer activity of the target compounds was conducted by MTT assay adopting the literature procedure.

[6] = tested on: MCF-7 cells; experiment: MTT antiproliferative assay, MCF-7; assay type: cell-based, human; conditions: mean ± SEM of three experiments; for inhibition at 10 µM / inhibition at 100 µM: Homo sapiens; for inhibition at 10 µM: MCF7, MCF7, 10 µM, read-out: % Growth inhibition MCF7 10 µM; for inhibition at 100 µM: MCF7, MCF7, 100 µM, read-out: % Growth inhibition MCF7 100 µM
Method: as §3, §4

Sequence of hCA XII (O43570 25-354): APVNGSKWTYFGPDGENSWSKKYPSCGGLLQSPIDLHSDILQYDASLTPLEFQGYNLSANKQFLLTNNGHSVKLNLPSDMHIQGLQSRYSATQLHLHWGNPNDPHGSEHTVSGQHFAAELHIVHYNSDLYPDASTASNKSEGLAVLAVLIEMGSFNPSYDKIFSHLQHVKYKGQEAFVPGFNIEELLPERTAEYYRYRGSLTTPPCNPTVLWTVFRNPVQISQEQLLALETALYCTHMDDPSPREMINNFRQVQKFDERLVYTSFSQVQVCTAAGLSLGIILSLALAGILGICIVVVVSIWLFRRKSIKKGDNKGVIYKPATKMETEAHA
Sequence of hCA I (P00915 whole entry): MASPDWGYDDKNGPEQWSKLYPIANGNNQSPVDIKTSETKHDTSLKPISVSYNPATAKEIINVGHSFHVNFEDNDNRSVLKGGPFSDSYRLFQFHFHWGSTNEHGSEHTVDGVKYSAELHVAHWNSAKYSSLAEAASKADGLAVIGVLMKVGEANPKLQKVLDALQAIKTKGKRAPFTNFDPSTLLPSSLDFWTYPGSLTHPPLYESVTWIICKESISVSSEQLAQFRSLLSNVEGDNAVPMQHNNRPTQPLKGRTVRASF

Structure (SMILES): O=C(Nc1ccc2oc(=O)ccc2c1)Nc1ccc(F)cc1F [Compound 5m, 1-(2,4-Difluorophenyl)-3-(2-oxo-2H-chromen-6-yl)urea]
- Ki [1]: > 100000 nM
- Ki [2]: > 100000 nM
- Ki [3]: 25.6 nM
- Ki [4]: 7.2 nM
- inhibition at 10 µM [5]: 25.7 ± 2.3%
- inhibition at 100 µM [5]: 26.1 ± 4%
- inhibition at 10 µM [6]: 15.2 ± 1.4%
- inhibition at 100 µM [6]: 22.7 ± 3.3%

Structure (SMILES): O=C(Nc1ccc2oc(=O)ccc2c1)Nc1ccc(Cl)cc1Cl [Compound 5l, 1-(2,4-Dichlorophenyl)-3-(2-oxo-2H-chromen-6-yl)urea]
- Ki [1]: > 100000 nM
- Ki [2]: > 100000 nM
- Ki [3]: 50.6 nM
- Ki [4]: 56.7 nM
- inhibition at 10 µM [5]: 2.6 ± 1.8%
- inhibition at 100 µM [5]: 6.7 ± 1.7%
- inhibition at 10 µM [6]: 5.9 ± 2.7%
- inhibition at 100 µM [6]: 6.6 ± 2.5%
- melting point: 291 to 292 °C

Structure (SMILES): O=C(Nc1ccc(Cl)c(C(F)(F)F)c1)Nc1ccc2oc(=O)ccc2c1 [Compound 5g, 1-(4-Chloro-3-(trifluoromethyl)phenyl)-3-(2-oxo-2H-chromen-6-yl)urea]
- Ki [1]: > 100000 nM
- Ki [2]: > 100000 nM
- Ki [3]: 66.4 nM
- Ki [4]: 29.4 nM
- inhibition at 10 µM [5]: 15.2 ± 4.4%
- inhibition at 100 µM [5]: 90.5 ± 1.4%
- inhibition at 10 µM [6]: 10 ± 2.4%
- inhibition at 100 µM [6]: 92.3 ± 0.6%
- melting point: 253 to 255 °C

Structure (SMILES): Cc1cc(Cl)ccc1NC(=O)Nc1ccc2oc(=O)ccc2c1 [Compound 5n, 1-(4-Chloro-2-methylphenyl)-3-(2-oxo-2H-chromen-6-yl)urea]
- Ki [1]: > 100000 nM
- Ki [2]: > 100000 nM
- Ki [3]: 28.4 nM
- Ki [4]: 43.1 nM
- inhibition at 10 µM [5]: 4.9 ± 2.5%
- inhibition at 100 µM [5]: 20.5 ± 3.5%
- inhibition at 10 µM [6]: 16.7 ± 4.9%
- inhibition at 100 µM [6]: 19.9 ± 1.2%

Structure (SMILES): O=C(Nc1cc(C(F)(F)F)cc(C(F)(F)F)c1)Nc1ccc2oc(=O)ccc2c1 [Compound 5i, 1-(3,5-Bis(trifluoromethyl)phenyl)-3-(2-oxo-2H-chromen-6-yl)urea]
- Ki [1]: > 100000 nM
- Ki [2]: > 100000 nM
- Ki [3]: 14.7 nM
- Ki [4]: 5.9 nM
- % Growth inhibition HCT116 10 µM ([5]; HCT116, 10 µM): 70.4 ± 2.6%
- % Growth inhibition HCT116 100 µM ([5]; HCT116, 100 µM): 94.2 ± 1.1%
- inhibition at 100 µM [5]: > 90%
- inhibition at 10 µM [6]: > 50%
- inhibition at 100 µM [6]: > 90%
- % Growth inhibition MCF7 10 µM ([6]; MCF7, 10 µM): 51.5 ± 3.1%
- % Growth inhibition MCF7 100 µM ([6]; MCF7, 100 µM): 93.9 ± 0.4%

Structure (SMILES): CCCCOc1ccc(NC(=O)Nc2ccc3oc(=O)ccc3c2)cc1 [Compound 5f, 1-(4-Butoxyphenyl)-3-(2-oxo-2H-chromen-6-yl)urea]
- Ki [1]: > 100000 nM
- Ki [2]: > 100000 nM
- Ki [3]: 32.5 nM
- Ki [4]: 81.8 nM
- inhibition at 10 µM [5]: 15 ± 5.2%
- inhibition at 100 µM [5]: 67.7 ± 0.6%
- inhibition at 10 µM [6]: 32.3 ± 2.6%
- inhibition at 100 µM [6]: 46.9 ± 3.4%
- melting point: 234 to 235 °C

Structure (SMILES): O=C(Nc1ccc2oc(=O)ccc2c1)c1cc(F)cc(F)c1 [Compound 7c, 3,5-Difluoro-N-(2-oxo-2H-chromen-6-yl)benzamide]
- Ki [1]: > 100000 nM
- Ki [2]: > 100000 nM
- Ki [3]: 61 nM
- Ki [4]: 40.5 nM
- inhibition at 10 µM [5]: 21.8 ± 3%
- inhibition at 100 µM [5]: 52 ± 5.1%
- inhibition at 10 µM [6]: 21.1 ± 3.3%
- inhibition at 100 µM [6]: 21.4 ± 4.7%
- melting point: 301 to 303 °C

Structure (SMILES): Cc1cccc(Cl)c1NC(=O)Nc1ccc2oc(=O)ccc2c1 [Compound 5o, 1-(2-Chloro-6-methylphenyl)-3-(2-oxo-2H-chromen-6-yl)urea]
- Ki [1]: > 100000 nM
- Ki [2]: > 100000 nM
- Ki [3]: 19.2 nM
- Ki [4]: 13.8 nM
- inhibition at 10 µM [5]: 9.7 ± 4%
- inhibition at 100 µM [5]: 78.6 ± 3.7%
- inhibition at 10 µM [6]: 30.3 ± 1.5%
- inhibition at 100 µM [6]: 72.8 ± 5.5%

Structure (SMILES): O=C(Nc1cc(Cl)cc(Cl)c1)Nc1ccc2oc(=O)ccc2c1 [Compound 5j, 1-(3,5-Dichlorophenyl)-3-(2-oxo-2H-chromen-6-yl)urea]
- Ki [1]: > 100000 nM
- Ki [2]: > 100000 nM
- Ki [3]: 19.9 nM
- Ki [4]: 23.4 nM
- inhibition at 10 µM [5]: 19.2 ± 3.8%
- inhibition at 100 µM [5]: 91.9 ± 1.1%
- inhibition at 10 µM [6]: 6.1 ± 2%
- inhibition at 100 µM [6]: 91.1 ± 0.6%
- melting point: 252 to 253 °C
